Assay results taken from US7569550B2, “14 and 15 membered ring compounds” (Glaxo Group Limited, priority 2003, dated 2009).
Counter-ions that a name gives are not always drawn.

How the values were obtained:
Assay in all cases: MIC, standard broth dilution method in microtitre
Type in all cases: cell-based
E. faecalis ATCC 29212 = details: Enterococcus faecalis, ATCC29212
Method: (§1) Using a standard broth dilution method in microtitre, compounds were tested for antibacterial activity. The compounds in the above examples gave minimum inhibitory concentrations (MICs) less than 1 microgram per millilitre against erythromycin-sensitive and erythromycin-resistant strains of Streptococcus pneumoniae and Streptococcus pyogenes.
(§2) In addition, the MIC (μg/ml) of test compounds against various organisms was determined including:
(§3) S. aureus Smith ATCC 13709, S. pneumoniae SP030, S. pyogenes 3565, E. faecalis ATCC 29212, H. influenzae ATCC 49247, M. catarrhalis ATCC 23246.

H. influenzae ATCC 49247 = details: Haemophilus influenzae, ATCC49247; H. influenzae ATCC 49247; read-out: MIC
Method: as §1, §2, §3

[1] = tested on: M. catarrhalis ATCC 23246; details: Moraxella catarrhalis, ATCC23246
Method: as §1, §2, §3

[2] = tested on: S. aureus Smith ATCC 13709; details: Staphylococcus aureus, ATCC13709
Method: as §1, §2, §3

S. pneumoniae SP030 = details: Streptococcus pneumoniae
Method: as §1, §2, §3

S. pyogenes 3565 = details: Streptococcus pyogenes
Method: as §1, §2, §3

[3] = tested on: erythromycin resistant strains of Streptococcus pneumoniae
Method: as §1

[4] = tested on: erythromycin resistant strains of Streptococcus pyogenes
Method: as §1

Row | MIC (E. faecalis ATCC 29212) | MIC (H. influenzae ATCC 49247) | MIC [1] | MIC [2] | MIC (S. pneumoniae SP030) | MIC (S. pyogenes 3565) | MIC [3] | MIC [4] | Compound
1 | ≤ 1 µg/mL | ≤ 4 µg/mL | ≤ 4 µg/mL | ≤ 1 µg/mL | ≤ 1 µg/mL | ≤ 1 µg/mL | ≤ 1 µg/mL | ≤ 1 µg/mL | CC[C@H]1OC(=O)[C@H](C)[C@@H](O[C@H]2C[C@@](C)(OC)[C@@H](OCCCN(C)CCNc3nc4c(cc3F)c(=O)c(C(=O)O)cn4CC)[C@H](C)O2)[C@H](C)[C@@H](O[C@@H]2O[C@H](C)C[C@H](N(C)C)[C@H]2O)[C@](C)(OC)C[C@@H](C)C(=O)[C@@H](C)[C@H]2NC(=O)O[C@@]21C [Example 27, 4″-O-{3-[[2-(3-Carboxy-1-ethyl-6-fluoro-4-oxo-1,4-dihydro-[1,8]naphthyridin-7-ylamino)-ethyl]-methylamino]-propyl}-6-O-methyl-11-desoxy-11-(R)-amino-erythromycin A 11,12-carbamate formate]
2 | ≤ 1 µg/mL | ≤ 4 µg/mL | ≤ 4 µg/mL | ≤ 1 µg/mL | ≤ 1 µg/mL | ≤ 1 µg/mL | ≤ 1 µg/mL | ≤ 1 µg/mL | CC[C@H]1OC(=O)[C@H](C)[C@@H](O[C@H]2C[C@@](C)(OC)[C@@H](OCCCN(C)CCOc3cc4c5c(c3)c(=O)c(C(=O)O)cn5CCC4)[C@H](C)O2)[C@H](C)[C@@H](O[C@@H]2O[C@H](C)C[C@H](N(C)C)[C@H]2O)[C@](C)(OC)C[C@@H](C)C(=O)[C@@H](C)[C@H]2NC(=O)O[C@@]21C [Example 28, 4″-O-{3-[[2-(2-Carboxy-1-oxo-6,7-dihydro-1H,5H-pyrido[3,2,1-ij]quinolin-9-yloxy)-ethyl]-methylamino]-propyl}-6-O-methyl-11-desoxy-11-(R)-amino-erythromycin A 11,12-carbamate formate]
3 | ≤ 1 µg/mL | ≤ 4 µg/mL | ≤ 4 µg/mL | ≤ 1 µg/mL | ≤ 1 µg/mL | ≤ 1 µg/mL | ≤ 1 µg/mL | ≤ 1 µg/mL | CC[C@@H]1OC(=O)[C@H](C)[C@H](O[C@@H]2C[C@](C)(OC)[C@H](OCCCN(C)CCCc3ccc4c(c3)c(=O)c(C(=O)O)cn4CC)[C@H](C)O2)[C@@H](C)[C@H](O[C@H]2O[C@@H](C)C[C@@H](N(C)C)[C@H]2O)[C@](C)(OC)C[C@H](C)C(=O)[C@H](C)[C@H]2NC(=O)O[C@@]12C [Example 29, 4″-O-{3-[[3-(3-Carboxy-1-ethyl-4-oxo-1,4-dihydro-quinolin-6-yl)-propyl]-methylamino]-propyl}-6-O-methyl-11-desoxy-11-(R)-amino-erythromycin A 11,12-carbamate formate]
4 | ≤ 1 µg/mL | ≤ 4 µg/mL | ≤ 4 µg/mL | ≤ 1 µg/mL | ≤ 1 µg/mL | ≤ 1 µg/mL | ≤ 1 µg/mL | ≤ 1 µg/mL | CC[C@H]1OC(=O)[C@H](C)[C@@H](O[C@H]2C[C@@](C)(OC)[C@@H](OCCCN(C)CCCc3cnc4c(c3)c(=O)c(C(=O)O)cn4CC)[C@H](C)O2)[C@H](C)[C@@H](O[C@@H]2O[C@H](C)C[C@H](N(C)C)[C@H]2O)[C@](C)(OC)C[C@@H](C)C(=O)[C@@H](C)[C@H]2NC(=O)O[C@@]21C [Example 30, 4″-O-{3-[[3-(3-Carboxy-1-ethyl-4-oxo-1,4-dihydro-6-[1,8]naphthryidinyl)-propyl]-methylamino]-propyl}-6-O-methyl-11-desoxy-11-(R)-amino-erythromycin A 11,12-carbamate]
5 | ≤ 1 µg/mL | ≤ 4 µg/mL | ≤ 4 µg/mL | ≤ 1 µg/mL | ≤ 1 µg/mL | ≤ 1 µg/mL | ≤ 1 µg/mL | ≤ 1 µg/mL | CC[C@H]1OC(=O)[C@H](C)[C@@H](O[C@H]2C[C@@](C)(OC)[C@@H](OCCCN(C)CCCc3cc4c5c(c3)c(=O)c(C(=O)O)cn5CCC4)[C@H](C)O2)[C@H](C)[C@@H](O[C@@H]2O[C@H](C)C[C@H](N(C)C)[C@H]2O)[C@](C)(OC)C[C@@H](C)C(=O)[C@@H](C)[C@H]2NC(=O)O[C@@]21C [Example 31, 4″-O-{3-[[3-(2-Carboxy-1-oxo-6,7-dihydro-1H,5H-pyrido[3,2,1-ij]quinolin-9-yl)-propyl]-methylamino]-propyl}-6-O-methyl-11-desoxy-11-(R)-amino-erythromycin A 11,12-carbamate]
6 | ≤ 1 µg/mL | ≤ 4 µg/mL | ≤ 4 µg/mL | ≤ 1 µg/mL | ≤ 1 µg/mL | ≤ 1 µg/mL | ≤ 1 µg/mL | ≤ 1 µg/mL | CC[C@H]1OC(=O)[C@H](C)[C@@H](O[C@H]2C[C@@](C)(OC)[C@@H](OCCCN(C)CCSc3ccc4c(c3)c(=O)c(C(=O)O)cn4CC)[C@H](C)O2)[C@H](C)[C@@H](O[C@@H]2O[C@H](C)C[C@H](N(C)C)[C@H]2O)[C@](C)(OC)C[C@@H](C)C(=O)[C@@H](C)[C@H]2NC(=O)O[C@@]21C [Example 32, 4″-O-{3-[[2-(3-Carboxy-1-ethyl-4-oxo-1,4-dihydro-quinolin-6-ylsulfanyl)-ethyl]-methylamino]-propyl}-6-O-methyl-11-desoxy-11-(R)-amino-erythromycin A 11,12-carbamate]
